According to ChEMBL document CHEMBL1151595, “Palladium-catalyzed synthesis of C3-substituted 3-deoxymorphines” (Bioorg Med Chem Lett, 1994):

What was measured:
Assay type in all cases: tissue-based
[1] = target: Kappa-type opioid receptor (Cavia porcellus, UniProt P41144); experiment: Binding to kappa opioid receptor by using [3H]U-69593 as radioligand in guinea pig cerebellum
[2] = target: Mu-type opioid receptor (Cavia porcellus, UniProt P97266); experiment: Binding to mu opioid receptor by using [3H]DAMGO as radioligand in guinea pig brain minus cerebellum
[3] = target: Mu-type opioid receptor (Cavia porcellus) (UniProt P97266); experiment: Binding to mu opioid receptor by using [3H]DAMGO as radioligand in guinea pig brain minus cerebellum at 10 uM
Sequence of Mu-type opioid receptor (Cavia porcellus) (P97266 whole entry): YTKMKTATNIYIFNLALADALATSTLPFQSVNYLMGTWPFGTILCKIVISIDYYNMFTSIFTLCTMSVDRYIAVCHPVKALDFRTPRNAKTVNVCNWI

Sequence of Mu-type opioid receptor (P97266 whole entry): as above
Sequence of Kappa-type opioid receptor (P41144 whole entry): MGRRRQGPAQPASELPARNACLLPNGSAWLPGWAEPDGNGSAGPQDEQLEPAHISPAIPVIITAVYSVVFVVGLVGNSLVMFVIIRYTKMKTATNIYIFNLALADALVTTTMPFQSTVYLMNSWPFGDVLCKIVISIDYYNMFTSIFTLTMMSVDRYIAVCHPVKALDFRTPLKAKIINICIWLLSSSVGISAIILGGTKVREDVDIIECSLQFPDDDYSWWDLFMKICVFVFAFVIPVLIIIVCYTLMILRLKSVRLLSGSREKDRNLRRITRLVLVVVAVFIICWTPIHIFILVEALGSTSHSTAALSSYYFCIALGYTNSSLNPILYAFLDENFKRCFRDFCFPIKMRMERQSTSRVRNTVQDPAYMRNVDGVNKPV

| SMILES | IC50 [1] | IC50 [2] | inhibition [3] |
| --- | --- | --- | --- |
| CN1CC[C@]23c4c5ccc(OS(=O)(=O)C(F)(F)F)c4O[C@H]2[C@@H](O)C=C[C@H]3[C@H]1C5 | 111 µM | 6.4 µM |  |
| CN1CC[C@]23c4c5ccc(-c6ccoc6)c4O[C@H]2[C@@H](O)C=C[C@H]3[C@H]1C5 | 0.91 µM | 0.2 µM |  |
| CN1CC[C@]23c4c5ccc(-c6cccs6)c4O[C@H]2[C@@H](O)C=C[C@H]3[C@H]1C5 | 25 µM |  | 49% |
| Cc1ccc2c3c1O[C@H]1[C@@H](O)C=C[C@H]4[C@@H](C2)N(C)CC[C@@]341 | 36 µM | 4.5 µM |  |
| CN1CC[C@]23c4c5ccc(-c6cc7ccccc7s6)c4O[C@H]2[C@@H](O)C=C[C@H]3[C@H]1C5 | 126 µM |  | 41% |
| CC(=O)c1ccc2c3c1O[C@H]1[C@@H](O)C=C[C@H]4[C@@H](C2)N(C)CC[C@@]341 | 5.1 µM | 0.64 µM |  |
| CN1CC[C@]23c4c5ccc(-c6ccccc6)c4O[C@H]2[C@@H](O)C=C[C@H]3[C@H]1C5 | 76 µM |  | 43% |
| CN1CC[C@]23c4c5ccc(-c6ccsc6)c4O[C@H]2[C@@H](O)C=C[C@H]3[C@H]1C5 | 15 µM | 3.3 µM |  |
| CN1CC[C@]23c4c5ccc(-c6ccco6)c4O[C@H]2[C@@H](O)C=C[C@H]3[C@H]1C5 | 9.5 µM | 2.6 µM |  |
| CN1CC[C@]23c4c5cccc4O[C@H]2[C@@H](O)C=C[C@H]3[C@H]1C5 | 11 µM | 0.53 µM |  |
